What is called IC50 is the point on the concentration scale where inhibition reaches its midpoint. A higher IC50 goes with a need for much substance.

Where only a bound is given, the exact number is not on record here.

For test [1], the target named is Casein kinase II (Homo sapiens) (UniProt P67870+P68400+P19784). Nature of the test: Selectivity for casein kinase II, CK2. Type of test: protein-complex assay.
The target in test [2] is Cyclin-dependent kinase 1 (Homo sapiens) (UniProt P06493). The experiment in a line: Selectivity for cyclin-dependent kinase-1, CDK1.
Sequence of Cyclin-dependent kinase 1 (Homo sapiens) (P06493 whole entry, looked up): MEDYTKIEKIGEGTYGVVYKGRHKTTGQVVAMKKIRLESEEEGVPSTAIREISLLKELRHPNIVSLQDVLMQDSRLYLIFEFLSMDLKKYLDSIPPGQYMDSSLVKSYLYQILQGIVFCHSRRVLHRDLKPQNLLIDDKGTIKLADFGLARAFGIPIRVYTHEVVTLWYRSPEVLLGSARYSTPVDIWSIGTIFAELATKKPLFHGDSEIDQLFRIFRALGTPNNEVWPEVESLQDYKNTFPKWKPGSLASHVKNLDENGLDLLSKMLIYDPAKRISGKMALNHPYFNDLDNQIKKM
The target in test [3] is cAMP-dependent protein kinase (PKA) (Homo sapiens) (UniProt P22694+P17612+P22612). Nature of the test: Selectivity for PKA. Type of test: protein assay.
The target of test [4] is T1, Cyclin-dependent kinase 2 (Homo sapiens, UniProt P24941). Nature of the test: Selectivity for cyclin-dependent kinase 2, CDK2.
Test [5] concerns the target Tyrosine-protein kinase CSK (Homo sapiens) (UniProt P41240). The experiment in a line: Selectivity over Protein kinase CSK (100-500).
Test [6] in a line: Compound was tested for its relative bone-targeting affinity using a hydroxyapatite column.
Test [7] is described as follows: Selectivity towards Protein kinase, EST-PT1.
Test [8] can be described thus: Selectivity towards Protein phosphatase, TC-PTP.
In test [9] the target is Cyclin-dependent kinase 5 (Homo sapiens) (UniProt Q00535). Nature of the test: Selectivity for cyclin-dependent kinase-5, CDK5.
Sequence of Cyclin-dependent kinase 5 (Homo sapiens) (Q00535 whole entry, looked up): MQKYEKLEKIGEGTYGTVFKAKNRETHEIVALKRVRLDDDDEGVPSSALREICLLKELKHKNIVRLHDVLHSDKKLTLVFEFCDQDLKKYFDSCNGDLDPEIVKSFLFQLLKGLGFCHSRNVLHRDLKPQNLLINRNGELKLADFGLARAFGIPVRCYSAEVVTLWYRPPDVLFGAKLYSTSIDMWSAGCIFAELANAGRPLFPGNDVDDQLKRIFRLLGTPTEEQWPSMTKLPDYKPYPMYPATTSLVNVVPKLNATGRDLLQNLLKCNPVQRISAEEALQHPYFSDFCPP
For test [10], the target named is DNA-dependent protein kinase catalytic subunit (Homo sapiens) (UniProt P78527). The experiment in a line: Selectivity for Protein kinase, DNAPK.
Test [11] concerns the target Mitogen-activated protein kinase 3 (Homo sapiens) (UniProt P27361). Nature of the test: Selectivity for mitogen-activated protein kinase, ERK1.
Test [12] concerns the target Glycogen synthase kinase-3 beta (Homo sapiens) (UniProt P49841). The experiment in a line: Selectivity for GSK3-beta.
The target of test [13] is Serine/threonine-protein kinase pim-1 (Homo sapiens) (UniProt P11309). The experiment in a line: Selectivity towards Protein kinase, PIM1.
Sequence of Serine/threonine-protein kinase pim-1 (Homo sapiens) (P11309 whole entry, looked up): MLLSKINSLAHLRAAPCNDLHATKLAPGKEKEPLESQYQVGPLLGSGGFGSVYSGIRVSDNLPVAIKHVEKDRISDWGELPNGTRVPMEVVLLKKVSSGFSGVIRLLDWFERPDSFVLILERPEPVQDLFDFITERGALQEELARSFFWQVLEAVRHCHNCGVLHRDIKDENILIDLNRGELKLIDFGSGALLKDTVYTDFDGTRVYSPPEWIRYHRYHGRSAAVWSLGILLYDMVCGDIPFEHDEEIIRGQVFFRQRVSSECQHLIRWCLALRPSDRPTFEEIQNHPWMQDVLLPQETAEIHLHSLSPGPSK
Test [14] deals with Wee1-like protein kinase (Homo sapiens) (UniProt P30291). The experiment in a line: Selectivity for Protein kinase WEE1.
For test [15], the target named is Tyrosine-protein kinase Fyn (Homo sapiens) (UniProt P06241). The experiment in a line: Selectivity for Fyn kinase.
Sequence of Tyrosine-protein kinase Fyn (Homo sapiens) (P06241 2-537 limits assumed): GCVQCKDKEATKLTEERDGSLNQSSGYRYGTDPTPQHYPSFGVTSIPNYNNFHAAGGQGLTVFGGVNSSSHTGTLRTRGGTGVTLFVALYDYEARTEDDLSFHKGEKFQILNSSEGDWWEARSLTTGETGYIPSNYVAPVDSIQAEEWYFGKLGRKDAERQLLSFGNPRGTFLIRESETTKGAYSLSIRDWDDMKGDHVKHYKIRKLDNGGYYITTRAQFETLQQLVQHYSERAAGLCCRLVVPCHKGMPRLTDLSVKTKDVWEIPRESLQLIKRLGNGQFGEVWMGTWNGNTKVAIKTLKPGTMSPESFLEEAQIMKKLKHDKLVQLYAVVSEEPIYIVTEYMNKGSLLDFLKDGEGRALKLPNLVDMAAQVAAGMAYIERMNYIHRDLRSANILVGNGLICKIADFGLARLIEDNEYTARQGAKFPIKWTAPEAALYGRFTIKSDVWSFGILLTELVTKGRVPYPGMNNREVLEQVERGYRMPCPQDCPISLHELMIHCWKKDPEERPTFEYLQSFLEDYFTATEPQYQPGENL
Test [16] has as its target T2, Scaffold protein ILK (Homo sapiens) (UniProt Q13418).
T2 sequence (whole entry): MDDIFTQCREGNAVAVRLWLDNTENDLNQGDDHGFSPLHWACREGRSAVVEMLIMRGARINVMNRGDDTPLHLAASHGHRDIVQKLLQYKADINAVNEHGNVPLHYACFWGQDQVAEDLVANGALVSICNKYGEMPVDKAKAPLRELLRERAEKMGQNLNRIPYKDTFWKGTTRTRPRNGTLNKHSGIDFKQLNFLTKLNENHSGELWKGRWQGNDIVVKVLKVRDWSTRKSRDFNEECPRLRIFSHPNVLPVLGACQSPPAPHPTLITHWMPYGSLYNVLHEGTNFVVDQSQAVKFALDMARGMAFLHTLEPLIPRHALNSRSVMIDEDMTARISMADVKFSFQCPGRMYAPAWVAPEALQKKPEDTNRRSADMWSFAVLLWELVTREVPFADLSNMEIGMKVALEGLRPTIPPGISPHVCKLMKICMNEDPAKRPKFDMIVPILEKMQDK
The experiment in a line: Selectivity towards Protein kinase, ILK1.

Test [17] has as its target Serine/threonine-protein kinase pim-1 (Homo sapiens) (UniProt P11309). Nature of the test: Selectivity for pim-1 oncogene.
Test [18] addresses Tyrosine-protein kinase Lck (Homo sapiens) (UniProt P06239). Nature of the test: Selectivity p56 Lck tyrosine kinase.
The nature of test [19]: Selectivity towards Protein phosphatase, MEG2.
For test [20], the target named is T3, Tyrosine-protein phosphatase non-receptor type 1 (Homo sapiens) (UniProt P18031).
T3 sequence (whole entry): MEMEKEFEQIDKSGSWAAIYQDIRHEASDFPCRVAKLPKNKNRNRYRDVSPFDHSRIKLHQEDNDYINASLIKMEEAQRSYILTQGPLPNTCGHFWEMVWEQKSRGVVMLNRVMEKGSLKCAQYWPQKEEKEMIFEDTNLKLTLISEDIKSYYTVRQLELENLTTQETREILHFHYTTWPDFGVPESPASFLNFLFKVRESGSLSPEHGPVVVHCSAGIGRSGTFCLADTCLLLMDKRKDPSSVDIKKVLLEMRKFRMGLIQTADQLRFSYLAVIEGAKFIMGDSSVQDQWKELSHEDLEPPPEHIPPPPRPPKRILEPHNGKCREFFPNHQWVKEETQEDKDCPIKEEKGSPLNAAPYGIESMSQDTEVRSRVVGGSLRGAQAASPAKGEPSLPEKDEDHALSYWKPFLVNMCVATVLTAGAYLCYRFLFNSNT
Nature of the test: Selectivity towards Protein phosphatase, PTP1b.

The target in test [21] is Protein kinase C (PKC) (Homo sapiens) (UniProt O94806+P41743+P17252+P05129+Q05655+P05771+Q05513+Q02156+P24723+Q15139+Q04759). The experiment in a line: Selectivity for Protein kinase, PKC. The format is protein assay.
The target in test [22] is T4, Serine/threonine-protein kinase 3 (Homo sapiens) (UniProt Q13188).
T4 sequence (whole entry): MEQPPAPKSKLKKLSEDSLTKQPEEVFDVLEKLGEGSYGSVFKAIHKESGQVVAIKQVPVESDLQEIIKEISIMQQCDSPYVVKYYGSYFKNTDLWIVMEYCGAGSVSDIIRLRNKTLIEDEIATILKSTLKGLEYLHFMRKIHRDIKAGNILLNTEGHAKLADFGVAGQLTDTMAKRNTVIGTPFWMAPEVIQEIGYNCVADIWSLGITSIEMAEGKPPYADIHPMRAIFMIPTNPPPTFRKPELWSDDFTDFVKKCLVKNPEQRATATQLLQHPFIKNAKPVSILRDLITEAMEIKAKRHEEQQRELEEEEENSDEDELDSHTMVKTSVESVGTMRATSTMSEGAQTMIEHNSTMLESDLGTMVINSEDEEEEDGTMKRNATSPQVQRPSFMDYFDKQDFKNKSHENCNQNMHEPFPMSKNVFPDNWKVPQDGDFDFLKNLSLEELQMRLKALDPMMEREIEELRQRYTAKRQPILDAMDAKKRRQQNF
The experiment in a line: Selectivity for Serine/threonine kinase 3.

For test [23], the target named is Serine/threonine-protein kinase PAK 3 (Homo sapiens) (UniProt O75914). Nature of the test: Selectivity for p21-activated kinase-3, PAK3.
Sequence of Serine/threonine-protein kinase PAK 3 (Homo sapiens) (O75914 whole entry, looked up): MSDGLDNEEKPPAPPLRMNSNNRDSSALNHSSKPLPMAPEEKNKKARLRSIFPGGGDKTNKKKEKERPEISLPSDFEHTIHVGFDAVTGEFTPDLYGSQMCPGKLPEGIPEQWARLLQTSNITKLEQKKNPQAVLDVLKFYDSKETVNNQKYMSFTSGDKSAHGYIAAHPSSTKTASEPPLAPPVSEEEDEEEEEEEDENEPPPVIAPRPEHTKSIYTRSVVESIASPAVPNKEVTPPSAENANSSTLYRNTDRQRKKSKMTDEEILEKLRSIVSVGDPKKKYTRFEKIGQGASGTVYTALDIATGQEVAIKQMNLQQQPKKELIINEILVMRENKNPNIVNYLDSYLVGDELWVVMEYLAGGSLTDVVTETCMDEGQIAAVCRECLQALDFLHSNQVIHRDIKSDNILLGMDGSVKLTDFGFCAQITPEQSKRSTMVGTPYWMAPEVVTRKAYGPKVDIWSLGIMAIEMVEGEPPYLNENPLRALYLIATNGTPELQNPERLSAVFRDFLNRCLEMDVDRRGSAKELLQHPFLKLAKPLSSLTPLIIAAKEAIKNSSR
Test [24] concerns the target Receptor-type tyrosine-protein phosphatase F (Homo sapiens) (UniProt P10586). The experiment in a line: Selectivity towards Protein phosphatase, LAR.
The target of test [25] is T1, Cyclin-dependent kinase 2. The experiment in a line: Inhibition of Cyclin-dependent kinase 2 (CDK2).

Sequence of Tyrosine-protein kinase CSK (Homo sapiens) (P41240 2-450 limits assumed): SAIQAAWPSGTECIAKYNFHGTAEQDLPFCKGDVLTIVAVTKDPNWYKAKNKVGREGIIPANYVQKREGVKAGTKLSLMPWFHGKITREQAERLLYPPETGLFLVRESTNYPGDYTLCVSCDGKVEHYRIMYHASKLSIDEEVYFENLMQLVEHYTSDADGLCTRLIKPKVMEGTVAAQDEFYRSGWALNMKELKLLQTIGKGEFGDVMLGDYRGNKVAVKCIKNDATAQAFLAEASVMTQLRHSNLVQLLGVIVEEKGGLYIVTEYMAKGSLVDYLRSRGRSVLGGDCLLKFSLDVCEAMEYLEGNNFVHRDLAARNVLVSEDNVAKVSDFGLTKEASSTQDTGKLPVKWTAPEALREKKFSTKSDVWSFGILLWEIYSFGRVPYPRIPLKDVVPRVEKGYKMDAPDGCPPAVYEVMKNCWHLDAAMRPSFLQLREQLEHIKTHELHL
Sequence of Receptor-type tyrosine-protein phosphatase F (Homo sapiens) (P10586 whole entry): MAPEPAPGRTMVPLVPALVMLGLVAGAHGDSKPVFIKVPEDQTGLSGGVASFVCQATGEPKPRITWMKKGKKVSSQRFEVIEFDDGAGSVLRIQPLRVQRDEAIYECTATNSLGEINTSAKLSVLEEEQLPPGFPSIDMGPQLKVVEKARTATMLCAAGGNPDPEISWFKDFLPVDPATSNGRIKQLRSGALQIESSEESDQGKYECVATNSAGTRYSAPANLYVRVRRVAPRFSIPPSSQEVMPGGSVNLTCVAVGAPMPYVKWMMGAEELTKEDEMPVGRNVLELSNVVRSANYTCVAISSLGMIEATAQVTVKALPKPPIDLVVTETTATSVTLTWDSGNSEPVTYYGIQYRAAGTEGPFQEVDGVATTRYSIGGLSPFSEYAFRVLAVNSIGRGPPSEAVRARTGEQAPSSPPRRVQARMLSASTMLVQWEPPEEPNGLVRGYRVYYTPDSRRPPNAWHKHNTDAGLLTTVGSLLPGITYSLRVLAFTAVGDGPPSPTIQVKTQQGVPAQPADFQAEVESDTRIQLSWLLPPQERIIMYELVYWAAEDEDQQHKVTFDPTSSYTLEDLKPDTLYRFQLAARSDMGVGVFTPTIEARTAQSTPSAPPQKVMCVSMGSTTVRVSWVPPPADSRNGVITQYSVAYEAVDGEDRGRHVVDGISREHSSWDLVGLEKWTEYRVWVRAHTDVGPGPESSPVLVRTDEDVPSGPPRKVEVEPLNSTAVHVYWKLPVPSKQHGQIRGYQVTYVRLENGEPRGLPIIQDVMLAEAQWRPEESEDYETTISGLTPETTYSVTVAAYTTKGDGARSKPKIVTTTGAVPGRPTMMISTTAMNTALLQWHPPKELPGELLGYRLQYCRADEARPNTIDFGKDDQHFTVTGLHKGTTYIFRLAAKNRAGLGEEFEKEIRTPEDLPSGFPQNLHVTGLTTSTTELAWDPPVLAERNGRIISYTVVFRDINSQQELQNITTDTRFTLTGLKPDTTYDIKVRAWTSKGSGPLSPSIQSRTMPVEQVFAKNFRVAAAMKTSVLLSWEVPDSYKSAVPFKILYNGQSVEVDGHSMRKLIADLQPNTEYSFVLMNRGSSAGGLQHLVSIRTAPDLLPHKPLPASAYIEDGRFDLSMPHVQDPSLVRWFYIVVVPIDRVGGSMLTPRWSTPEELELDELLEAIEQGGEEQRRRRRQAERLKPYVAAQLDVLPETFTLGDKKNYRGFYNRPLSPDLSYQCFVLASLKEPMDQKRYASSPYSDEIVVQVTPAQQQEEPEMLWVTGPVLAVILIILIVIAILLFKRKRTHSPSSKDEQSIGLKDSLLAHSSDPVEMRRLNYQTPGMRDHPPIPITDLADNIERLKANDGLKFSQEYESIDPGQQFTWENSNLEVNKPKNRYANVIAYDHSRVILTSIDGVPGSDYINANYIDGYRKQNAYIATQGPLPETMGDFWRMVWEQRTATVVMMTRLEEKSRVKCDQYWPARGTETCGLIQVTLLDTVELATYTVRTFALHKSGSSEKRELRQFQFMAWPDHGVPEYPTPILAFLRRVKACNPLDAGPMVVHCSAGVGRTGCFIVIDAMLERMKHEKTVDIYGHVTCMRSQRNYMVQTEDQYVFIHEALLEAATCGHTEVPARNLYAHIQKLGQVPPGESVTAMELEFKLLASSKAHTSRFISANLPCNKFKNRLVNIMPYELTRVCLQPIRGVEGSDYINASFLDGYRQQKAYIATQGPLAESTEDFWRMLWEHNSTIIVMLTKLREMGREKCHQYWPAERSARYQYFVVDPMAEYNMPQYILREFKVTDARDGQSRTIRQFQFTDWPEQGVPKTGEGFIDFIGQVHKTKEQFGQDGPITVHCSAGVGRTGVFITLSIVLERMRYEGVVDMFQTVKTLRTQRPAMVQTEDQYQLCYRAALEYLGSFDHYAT
Sequence of Tyrosine-protein kinase Lck (Homo sapiens) (P06239 2-509 limits assumed): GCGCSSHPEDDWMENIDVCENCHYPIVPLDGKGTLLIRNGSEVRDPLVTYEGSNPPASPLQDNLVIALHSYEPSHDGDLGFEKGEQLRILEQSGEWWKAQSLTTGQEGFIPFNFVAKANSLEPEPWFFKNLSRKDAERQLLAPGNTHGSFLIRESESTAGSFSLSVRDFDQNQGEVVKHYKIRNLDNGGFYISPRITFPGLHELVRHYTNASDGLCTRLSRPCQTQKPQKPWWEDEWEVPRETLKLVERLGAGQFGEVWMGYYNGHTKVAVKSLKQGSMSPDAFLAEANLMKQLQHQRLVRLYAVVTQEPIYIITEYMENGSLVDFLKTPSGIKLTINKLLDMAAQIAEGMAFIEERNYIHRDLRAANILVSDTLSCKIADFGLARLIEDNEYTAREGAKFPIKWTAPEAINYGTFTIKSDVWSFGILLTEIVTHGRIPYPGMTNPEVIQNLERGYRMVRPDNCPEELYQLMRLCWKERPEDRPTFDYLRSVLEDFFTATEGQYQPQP

`N[C@H]1CC[C@H](Nc2nc(Nc3ccc(P(=O)(O)CP(=O)(O)O)cc3)c3ncn(C4CCCC4)c3n2)CC1`: the Selectivity is > 500 in test [1]; 10 in test [2]; > 500 in test [3]; 10 in test [4]; 100 in test [5]; > 500 in [7]. The Selectivity in [8] is > 500; in test [9], 10; in [10] it was > 500; in [11] it was > 500; in [12] it was > 500; in test [13], > 500. In addition, the Selectivity in test [14] was > 500; in [15], 1; in [16], > 500; in [17] it was > 500; in test [18], 100; in test [19], > 500. Further, the Selectivity in [20] was > 500; in test [21], > 500; in [22], > 500; in [23], 100; in [24] it was > 500. Further, the K' in test [6] was 2.5.

In [6], `O=P(O)(O)C(O)(CCCNc1nc(Nc2ccccc2)c2ncn(C3CCCC3)c2n1)P(=O)(O)O` came in with a K' of 3.6.

In [6], `N[C@H]1CC[C@H](Nc2nc(Nc3ccc(C(P(=O)(O)O)P(=O)(O)O)cc3)c3ncn(C4CCCC4)c3n2)CC1` gave a K' of 3.3.

Compound `CN(C)CCNc1nc(Nc2ccccc2)c2ncn(C3CCCC3)c2n1` returned a K' in test [6] of 0.

`CC(C)[C@H](CO)Nc1nc(Nc2cccc(Cl)c2)c2ncn(C(C)C)c2n1` [PURVALANOLA] displayed an IC50 in test [25] of 4 nM.

For `N[C@H]1CC[C@H](Nc2nc(Nc3ccc(P(=O)(O)O)c(P(=O)(O)O)c3)c3ncn(C4CCCC4)c3n2)CC1`, the K' in [6] turned out to be 1.8.

Consider `O=P(O)(O)CP(=O)(O)CCCNc1nc(Nc2ccccc2)c2ncn(C3CCCC3)c2n1`, for which, in test [6], the K' worked out at 2.3.

As to `N[C@H]1CC[C@H](Nc2nc(Nc3ccccc3)c3ncn(C4CCCC4)c3n2)CC1`, the K' in test [6] turned out to be 0.
